Experimental data taken from US6624159B2, “Heterocycle carboxamides as antiviral agents” (Pharmacia & Upjohn Company, priority 2000, dated 2003).
pIC50: −log10 of the molar value. Structures can show the parent of a compound that is named as a salt.

Key:
VZV polymerase = VZV polymerase (Varicella-zoster virus, UniProt P09252); test: VZV polymerase assay (Table 1); assay type: biochemical
Protocol: [The source words this procedure for another target and says it was used here with some conditions changed.] (§1) The HCMV polymerase assay is performed using a scintillation proximity assay (SPA) as described in several references, such as N. D. Cook, et al., Pharmaceutical Manufacturing International, pages 49-53 (1992); K. Takeuchi, Laboratory Practice, September issue (1992); U.S. Pat. No. 4,568,649 (1986); which are incorporated by reference herein. Reactions are performed in 96-well plates. The assay is conducted in 100 μl volume with 5.4 mM HEPES (pH 7.5), 11.7 mM KCl, 4.5 mM MgCl2, 0.36 mg/ml BSA, and 90 nM ^3H-dTTP. Assays are run with and without CHAPS, (3-[(3-Cholamidopropyl)-dimethylammonio]-1-propane-sulfonate) at a final concentration of 2 mM. HCMV polymerase is diluted in enzyme dilution buffer containing 50% glycerol, 250 mM NaCl, 10 mM HEPES (pH 7.5), 100 μg/ml BSA, and 0.01% sodium azide. The HCMV polymerase, which is expressed in recombinant baculovirus-infected SF-9 cells and purified according to literature procedures, is added at 10% (or 10 μl) of the final reaction volume, i.e., 100 μl. Compounds are diluted in 50% DMSO and 10 μl are added to each well. Control wells contain an equivalent concentration of DMSO. Unless noted otherwise, reactions are initiated via the addition of 6 nM biotinylated poly(dA)-oligo(dT) template/primer to reaction mixtures containing the enzyme, substrate, and compounds of interest. Plates are incubated in a 25° C. or 37° C. H2O bath and terminated via the addition of 40 μl/reaction of 0.5 M EDTA (pH 8) per well. Reactions are terminated within the time-frame during which substrate incorporation is linear and varied depending upon the enzyme and conditions used, i.e., 30 min. for HCMV polymerase. Ten μl of streptavidin-SPA beads (20 mg/ml in PBS/10% glycerol) are added following termination of the reaction. Plates are incubated 10 min. at 37° C., then equilibrated to room temperature, and counted on a Packard Topcount. Linear regressions are performed and IC50's are calculated using computer software.
(§2) A modified version of the above HCMV polymerase assay is performed as described above, but with the following changes: Compounds are diluted in 100% DMSO until final dilution into assay buffer. In the previous assay, compounds are diluted in 50% DMSO. 4.5 mM dithiothreitol (DTT) is added to the polymerase buffer.

HSV polymerase = HSV polymerase (Human herpesvirus 1, UniProt P04293); test: HSV polymerase assay (Table 1); assay type: biochemical
HSV polymerase, sequence (P04293 whole entry): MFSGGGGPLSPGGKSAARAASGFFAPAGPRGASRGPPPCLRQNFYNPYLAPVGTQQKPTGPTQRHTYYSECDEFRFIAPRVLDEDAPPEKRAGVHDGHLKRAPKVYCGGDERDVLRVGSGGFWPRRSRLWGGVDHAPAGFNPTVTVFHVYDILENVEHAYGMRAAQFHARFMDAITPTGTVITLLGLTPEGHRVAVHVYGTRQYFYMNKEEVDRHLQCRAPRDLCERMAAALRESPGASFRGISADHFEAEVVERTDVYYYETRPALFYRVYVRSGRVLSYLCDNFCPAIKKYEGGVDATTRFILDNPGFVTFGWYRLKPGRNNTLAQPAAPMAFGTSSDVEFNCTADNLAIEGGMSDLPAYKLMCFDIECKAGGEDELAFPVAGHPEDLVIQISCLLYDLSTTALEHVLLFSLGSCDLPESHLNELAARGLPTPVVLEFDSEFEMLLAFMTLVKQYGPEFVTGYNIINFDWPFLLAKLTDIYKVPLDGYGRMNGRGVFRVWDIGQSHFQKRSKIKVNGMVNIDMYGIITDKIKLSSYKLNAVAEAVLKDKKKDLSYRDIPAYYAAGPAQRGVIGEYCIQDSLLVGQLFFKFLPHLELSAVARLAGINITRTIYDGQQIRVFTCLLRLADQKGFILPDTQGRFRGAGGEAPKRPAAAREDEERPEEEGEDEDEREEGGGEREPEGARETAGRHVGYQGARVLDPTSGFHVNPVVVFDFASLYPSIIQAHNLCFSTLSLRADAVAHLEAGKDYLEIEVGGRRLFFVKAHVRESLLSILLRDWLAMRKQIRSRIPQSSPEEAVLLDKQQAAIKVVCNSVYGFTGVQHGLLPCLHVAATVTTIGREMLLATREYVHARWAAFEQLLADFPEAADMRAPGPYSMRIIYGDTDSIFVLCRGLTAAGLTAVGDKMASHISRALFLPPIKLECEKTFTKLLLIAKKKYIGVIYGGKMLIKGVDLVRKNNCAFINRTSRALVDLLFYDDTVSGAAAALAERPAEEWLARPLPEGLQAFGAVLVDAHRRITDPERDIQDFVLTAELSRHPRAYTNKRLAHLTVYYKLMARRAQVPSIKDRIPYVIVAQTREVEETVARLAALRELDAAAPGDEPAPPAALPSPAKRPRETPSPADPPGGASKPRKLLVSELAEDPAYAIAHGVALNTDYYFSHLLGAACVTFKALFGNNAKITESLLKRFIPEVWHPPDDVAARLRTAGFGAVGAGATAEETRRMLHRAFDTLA

HCMV polymerase = molecular target: T1, HCMV polymerase (Human cytomegalovirus, UniProt P08546); test: HCMV polymerase scintillation proximity assay (modified version); assay type: biochemical; conditions: for pIC50: modified SPA assay, compounds diluted in 100% DMSO, 4.5 mM DTT
T1 construct: made in house; host or cells: recombinant baculovirus-infected SF-9 cells
T1 sequence (P08546 whole entry): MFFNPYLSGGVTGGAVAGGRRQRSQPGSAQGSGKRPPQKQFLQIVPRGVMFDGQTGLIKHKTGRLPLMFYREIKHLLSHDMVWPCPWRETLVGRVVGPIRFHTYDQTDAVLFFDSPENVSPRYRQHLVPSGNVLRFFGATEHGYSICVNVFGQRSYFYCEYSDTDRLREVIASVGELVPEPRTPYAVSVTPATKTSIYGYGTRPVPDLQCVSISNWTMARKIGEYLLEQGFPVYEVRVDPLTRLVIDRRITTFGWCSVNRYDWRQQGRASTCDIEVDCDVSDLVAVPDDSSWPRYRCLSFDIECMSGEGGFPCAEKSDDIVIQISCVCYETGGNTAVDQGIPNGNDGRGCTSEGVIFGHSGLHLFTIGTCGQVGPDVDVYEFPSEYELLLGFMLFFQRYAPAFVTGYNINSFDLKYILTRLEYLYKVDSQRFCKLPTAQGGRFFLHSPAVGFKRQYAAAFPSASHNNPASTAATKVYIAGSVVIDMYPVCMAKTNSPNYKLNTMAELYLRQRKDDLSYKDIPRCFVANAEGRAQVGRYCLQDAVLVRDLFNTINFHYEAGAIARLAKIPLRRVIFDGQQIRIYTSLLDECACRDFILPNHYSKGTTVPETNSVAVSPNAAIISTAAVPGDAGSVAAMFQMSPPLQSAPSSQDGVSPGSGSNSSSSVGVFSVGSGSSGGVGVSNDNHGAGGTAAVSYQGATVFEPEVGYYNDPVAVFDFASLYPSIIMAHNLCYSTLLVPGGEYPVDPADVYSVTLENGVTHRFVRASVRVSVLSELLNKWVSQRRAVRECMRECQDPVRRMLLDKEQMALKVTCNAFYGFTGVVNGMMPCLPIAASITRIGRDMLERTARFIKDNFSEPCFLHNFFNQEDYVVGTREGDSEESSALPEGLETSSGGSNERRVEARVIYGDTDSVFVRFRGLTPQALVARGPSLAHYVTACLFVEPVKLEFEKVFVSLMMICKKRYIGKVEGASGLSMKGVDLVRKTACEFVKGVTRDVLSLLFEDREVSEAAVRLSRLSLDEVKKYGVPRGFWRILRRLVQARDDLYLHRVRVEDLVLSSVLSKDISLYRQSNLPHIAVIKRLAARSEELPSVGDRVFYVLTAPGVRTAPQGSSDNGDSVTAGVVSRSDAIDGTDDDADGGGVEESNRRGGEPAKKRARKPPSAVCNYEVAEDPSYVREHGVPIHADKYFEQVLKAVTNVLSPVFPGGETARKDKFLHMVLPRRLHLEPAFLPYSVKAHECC
Protocol: as §1, §2

VZV polymerase, sequence (P09252 whole entry): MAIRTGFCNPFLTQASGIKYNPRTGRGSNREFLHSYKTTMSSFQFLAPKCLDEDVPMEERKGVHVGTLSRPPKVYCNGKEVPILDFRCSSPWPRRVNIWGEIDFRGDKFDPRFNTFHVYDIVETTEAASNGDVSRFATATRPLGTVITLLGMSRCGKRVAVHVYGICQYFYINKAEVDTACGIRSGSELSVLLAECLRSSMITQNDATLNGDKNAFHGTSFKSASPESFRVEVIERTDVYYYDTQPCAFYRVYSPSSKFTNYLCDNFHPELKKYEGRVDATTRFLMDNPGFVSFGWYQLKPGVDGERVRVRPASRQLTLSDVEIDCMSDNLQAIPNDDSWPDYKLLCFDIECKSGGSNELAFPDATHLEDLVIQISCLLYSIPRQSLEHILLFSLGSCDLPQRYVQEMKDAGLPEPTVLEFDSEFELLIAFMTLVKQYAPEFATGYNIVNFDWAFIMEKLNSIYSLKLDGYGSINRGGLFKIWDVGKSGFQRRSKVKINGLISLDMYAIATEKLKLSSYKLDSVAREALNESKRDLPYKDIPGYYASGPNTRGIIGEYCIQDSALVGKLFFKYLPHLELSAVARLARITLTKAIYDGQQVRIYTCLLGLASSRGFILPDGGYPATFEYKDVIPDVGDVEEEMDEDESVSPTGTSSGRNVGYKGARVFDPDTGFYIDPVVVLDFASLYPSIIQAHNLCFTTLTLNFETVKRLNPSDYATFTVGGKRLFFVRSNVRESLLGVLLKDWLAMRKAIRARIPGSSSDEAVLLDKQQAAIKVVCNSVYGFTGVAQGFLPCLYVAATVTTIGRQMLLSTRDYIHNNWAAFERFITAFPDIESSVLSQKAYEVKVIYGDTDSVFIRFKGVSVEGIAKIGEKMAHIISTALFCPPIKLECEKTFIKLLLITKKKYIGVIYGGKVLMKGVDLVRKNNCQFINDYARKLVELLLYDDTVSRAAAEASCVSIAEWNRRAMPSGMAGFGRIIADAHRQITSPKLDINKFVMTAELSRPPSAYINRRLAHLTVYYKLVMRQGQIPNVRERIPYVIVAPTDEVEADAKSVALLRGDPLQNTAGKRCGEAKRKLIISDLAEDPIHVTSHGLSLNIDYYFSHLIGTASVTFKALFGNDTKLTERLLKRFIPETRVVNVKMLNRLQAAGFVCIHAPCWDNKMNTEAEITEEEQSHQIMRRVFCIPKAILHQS

Compound	pIC50 (VZV polymerase)	pIC50 (HSV polymerase)	pIC50 (HCMV polymerase)	melting point	inhibition at 20 µM (HCMV polymerase; at 20 μM, read-out: Polymerase HCMV, percent inhibition at the given concentration) [%]
O=C1Cn2cc(C(=O)NCc3ccc(Cl)cc3)c(=O)c3cc(CN4CCOCC4)cc(c32)N1 [Example 3, N-(4-Chlorobenzyl)-9-(4-morpholinylmethyl)-2,7-dioxo-2,3-dihydro-1H,7H-pyrido[1,2,3-de]quinoxaline-6-carboxamide]	7.22	> 6.29	6.85		
O=C(NCc1ccc(Cl)cc1)c1cn2c(=O)[nH]c3cc(CN4CCOCC4)cc(c1=O)c32 [Example 2, N-(4-Chlorobenzyl)-8-(4-morpholinylmethyl)-2,6-dioxo-1,2-dihydro-6H-imidazo[4,5,1-ij]quinoline-5-carboxamide]	6.28	6.13	6.11		
O=C(NCc1ccc(Cl)cc1)c1cc2c3c(cc(CN4CCOCC4)cn3c1=O)CCC2 [Example 7, N-(4-Chlorobenzyl)-6-(morpholin-4-ylmethyl)-3-oxo-9,10dihydro-3H,8H-pyrido[3,2,1-ij]quinoline-2-carboxamide]			5.40	200 to 201 °C	
O=C(NCc1ccc(Cl)cc1)c1cn2c3c(cc(CN4CCOCC4)cc3c1=O)OCCC2 [Example 1, N-(4-Chlorobenzyl)-10-(4-morpholinylmethyl)-8-oxo-3,4-dihydro-2H,8H-[1,4]oxazepino [2,3,4-ij]quinoline-7-carboxamide]			6.19	195 to 197 °C	
O=C(NCc1ccc(Cl)cc1)c1cn2c3c(cc(CN4CCOCC4)cc3c1=O)CN(Cc1ccccc1)C(=O)C2 [Example 14, 2-Benzyl-N-(4-chlorobenzyl)-10-(4-morpholinylmethyl)-3,8-dioxo-1,2,3,4-tetrahydro-8H-[1,4]diazepino[6,7,1-ij]quinoline-7-carboxamide]			5.22		
O=C(NCc1ccc(Cl)cc1)c1cn2c3c(cc(C#CCO)cc3c1=O)CC2CO (stereo not shown) [Example 5, N-(4-Chlorobenzyl)-2-(hydroxymethyl)-8-(3-hydroxy-1-propynyl)-6-oxo-1,2-dihydro-6H-pyrrolo[3,2,1-ij]quinoline-5-carboxamide]			5.49	224 to 225 °C	
O=C(NCc1ccc(Cl)cc1)c1cn2c3c(cc(CN4CCOCC4)cc3c1=O)CN(Cc1ccccc1)C2=O [Example 13, 2-Benzyl-N-(4-chlorobenzyl)-9-(4-morpholinylmethyl)-3,7-dioxo-2,3-dihydro-1H,7H-pyrido[3,2,1-ij]quinazoline-6-carboxamide]					39
CN1CCc2cc(C#CCO)cc3c(=O)c(C(=O)NCc4ccc(Cl)cc4)cn1c23 [Example 16, N-(4-Chlorobenzyl)-5-(3-hydroxyprop-1-ynyl)-1-methyl-7-oxo-2,3-dihydro-1H,7H-pyrido[3,2,1-ij]cinnoline-8-carboxamide]			5.10	165 to 167 °C	
CN1C(=O)Cn2cc(C(=O)NCc3ccc(Cl)cc3)c(=O)c3cc(C#CCO)cc1c32 [Example 11, N-(4-Chlorobenzyl)-9-(3-hydroxy-1-propynyl)-1-methyl-2,7-dioxo-2,3-dihydro-1H,7H-pyrido[1,2,3-de]quinoxaline-6-carboxamide]			5.94		
CC1C(=O)Nc2cc(CN3CCOCC3)cc3c(=O)c(C(=O)NCc4ccc(Cl)cc4)cn1c23 (stereo not shown) [Example 8, N-(4-Chlorobenzyl)-3-methyl-9-(4-morpholinylmethyl)-2,7-dioxo-2,3-dihydro-1H,7H-pyrido[1,2,3-de]quinoxaline-6-carboxamide hydrobromide]	7.05	6.70	6.37		
CC1(C)Cc2cc(C#CCO)cc3c(=O)c(C(=O)NCc4ccc(Cl)cc4)cn1c23 [Example 6, N-(4-Chlorobenzyl)-8-(3-hydroxyprop-1-ynyl)-2,2-dimethyl-6-oxo-1,2-dihydro-6H-pyrrolo[3,2,1-ij]quinoline-5-carboxamide]			5.40	228 °C (dec.)	
O=C(NCc1ccc(Cl)cc1)c1cn2c3c(cc(CN4CCOCC4)cc3c1=O)N=C(NCc1ccccc1)C2 [Example 10, 2-(Benzylamino)-N-(4-chlorobenzyl)-9-(4-morpholinylmethyl)-7-oxo-3H,7H-pyrido[1,2,3-de]quinoxaline-6-carboxamide]	6.92	6.51	6.51	235 to 240 °C	
O=C(NCc1ccc(Cl)cc1)c1cn2c3c(cc(CN4CCOCC4)cc3c1=O)N=C(NCc1ccc(Cl)cc1)C2 [Example 4, N-(4-Chlorobenzyl)-2-[(4-chlorobenzyl)amino]-9-(4-morpholinylmethyl)-7-oxo-3H,7H-pyrido[1,2,3-de]quinoxaline-6-carboxamide]	6.74		6.80		
CN1COc2cc(C#CCO)cc3c(=O)c(C(=O)NCc4ccc(Cl)cc4)cn1c23 [Example 15, N-(4-Chlorobenzyl)-9-(3-hydroxyprop-1-ynyl)-3-methyl-7-oxo-2,3-dihydro-7H-[1,3,4]oxadiazino[6,5,4-ij]quinoline-6-carboxamide]			5.38	231 to 233 °C	
O=C1CCn2cc(C(=O)NCc3ccc(Cl)cc3)c(=O)c3cc(CN4CCOCC4)cc(c32)N1 [Example 9, N-(4-Chlorobenzyl)-10-(4-morpholinylmethyl)-2,8-dioxo-1,2,3,4-tetrahydro-8H-[1,4]diazepino[3,2,1-ij]quinoline-7-carboxamide]	6.77	6.55	6.17		
O=C(NCc1ccc(Cl)cc1)c1cn2c3c(cc(CN4CCOCC4)cc3c1=O)CN(Cc1ccccc1)C2 [Example 12, 2-Benzyl-N-(4-chlorobenzyl)-9-(4-morpholinylmethyl)-7-oxo-2,3-dihydro-1H,7H-pyrido[3,2,1-ij]quinazoline-6-carboxamide]			5.78		
